Reference: publication doi:10.1101/2022.06.14.496144v1, “Crystal structure and functional peculiarities of a primordial Orange Carotenoid Protein (OCPX)” (biorxiv, 2022)
Substitutions are numbered along the chain they refer to.

Tests used:
Type in all cases: binding
[1] = molecular target: T1, GlOCPX (Gloeobacter kilaueensis, UniProt U5QHX0, E25A); experiment: X-ray crystal structure, […] Å; conditions: between NTD and CTD; pH 6.5 crystals
T1 construct: gene GKIL_2275; full length M1-R322, codon-optimised, E. coli C41(DE3) making ECH or CAN, His tag cut by 3C leaving N-terminal GPH
T1 sequence (U5QHX0 1-322 E25A): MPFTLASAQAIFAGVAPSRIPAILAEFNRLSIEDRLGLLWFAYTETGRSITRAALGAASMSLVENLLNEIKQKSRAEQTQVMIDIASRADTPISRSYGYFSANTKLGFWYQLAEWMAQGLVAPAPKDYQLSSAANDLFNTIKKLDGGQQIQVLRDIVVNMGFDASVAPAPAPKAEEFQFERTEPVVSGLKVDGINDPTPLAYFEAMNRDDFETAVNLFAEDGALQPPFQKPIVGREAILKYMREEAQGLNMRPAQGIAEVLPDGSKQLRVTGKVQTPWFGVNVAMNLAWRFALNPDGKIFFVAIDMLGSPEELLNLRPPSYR

[2] = molecular target: T2, GlOCPX (Gloeobacter kilaueensis, UniProt U5QHX0); experiment: co-purified holoprotein, SEC with absorbance spectra, photocycle; conditions: pH 7.6; ECH-producing E. coli
T2 construct: gene GKIL_2275; full length M1-R322, codon-optimised, E. coli C41(DE3) making ECH or CAN, His tag cut by 3C leaving N-terminal GPH
T2 sequence (U5QHX0 1-322): T1 sequence (U5QHX0 1-322 E25A) with A25E

[3] = molecular target: T3, ΔNTE-GlOCPX (Gloeobacter kilaueensis, UniProt U5QHX0); experiment: co-purified holoprotein, absorbance, photocycle; conditions: pH 7.6; ECH-producing E. coli
T3 construct: gene GKIL_2275; N-terminal extension M1-P17 removed, E. coli C41(DE3) making ECH, His-3C tag
T3 sequence (U5QHX0 18-322): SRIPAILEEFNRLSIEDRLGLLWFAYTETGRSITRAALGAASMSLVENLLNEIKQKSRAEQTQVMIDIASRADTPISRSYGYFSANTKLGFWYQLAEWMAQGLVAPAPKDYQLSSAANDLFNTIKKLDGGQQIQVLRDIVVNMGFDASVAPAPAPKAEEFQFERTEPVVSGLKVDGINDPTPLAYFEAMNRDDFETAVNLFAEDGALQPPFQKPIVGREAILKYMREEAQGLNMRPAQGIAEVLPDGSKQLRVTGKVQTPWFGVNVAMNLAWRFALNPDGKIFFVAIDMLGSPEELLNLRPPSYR

SMILES: CC1=C(/C=C/C(C)=C/C=C/C(C)=C/C=C/C=C(C)/C=C/C=C(C)/C=C/C2=C(C)C(=O)CCC2(C)C)C(C)(C)CCC1 [ECH, echinenone]
- X-ray crystal structure, 1.7 Å [1]: A well-defined density revealed that the GlOCPX-embedded carotenoid is echinenone (ECH)
- co-purified holoprotein, SEC with absorbance spectra, photocycle [2]: produced GlOCPX in Escherichia coli strains synthesizing ketocarotenoids canthaxanthin (CAN) or echinenone (ECH)
- co-purified holoprotein, absorbance, photocycle [3]: All samples uniformly contained ECH as a cofactor
